The test system of assay [1] is mixed lymphocytes reaction (MLR), T cells from spleen cells of C57BL/6 mice and BALB/c mice. Put plainly: Immunosuppressive activity: inhibition of mixed lymphocytes reaction (MLR). In kind it is cell-based, mice (C57BL/6. The settings on record: Lymphocyte; mouse MLR, 50% inhibition. The source says:
We measured inhibitory activity of mixed lymphocytes reaction (MLR) and determined the 50% inhibitory activity. Lymphocytes used are T cells from spleen cells of C57BL/6 mice and BALB/c mice.

In assay [2] the test system is Cryptococcus neoformans TIMM 0354. Put plainly: Antifungal activity: growth inhibition of Cryptococcus neoformans TIMM 0354 (serial two-fold dilution). The class given is cell-based. The conditions noted are these: YNBG liquid medium, 2 days at 30° C.; for MIC: Cryptococcus neoformans, TIMM0354, 48 h, read-out: Antifungal activity MIC (minimum growth inhibitory concentration); for minimum growth sub-inhibitory concentration (minimum concentration causing partial growth inhibition; value in parentheses): printed in parentheses. On the procedure: The test microorganism used was Cryptococcus neoformans TIMM 0354. YNBG liquid medium (Difco yeast nitrogen base 0.67%, glucose 1%) was used and the minimum growth inhibitory concentration […] was determined after culturing for 2 days at 30° C. in the presence of the serial two-fold dilution of the compound. The minimum growth sub-inhibitory concentration (μg/ml) was determined as the minimum concentration causing partial growth inhibition of the microorganism and also shown in Table 2 in parentheses.

This is an account of results in US6239297A, “Sphingosine derivatives and medicinal composition” (Takara Shuzo Co., Ltd., priority 1997, dated 2001).

As a reminder, the IC50 is the concentration at which inhibition is half-maximal.

SMILES strings stand for the structures. Converted amounts (≈) assume the structure as drawn.

On to `CCCCCCCCCCCCCCCC(O)C(N)COC(=O)[C@@H](NC(=O)C(O)CO)C(C)C` (some centres unmarked) [Compound (1)], for which, in assay [1], the IC50 was determined as 3.25 µg/mL (≈ 6.65 µM). Also, in assay [2], the MIC is 50 µg/mL (≈ 102 µM) and the “minimum growth sub-inhibitory concentration (minimum concentration causing partial growth inhibition; value in parentheses)” value turned out to be 25 µg/mL.

The compound `CCCCCCCCCCCCCC=CC(O)C(N)COC(=O)C(NC(=O)C(O)CO)C(C)C` (centres unmarked) [Compound (2)] returned a concentration for half-maximal inhibition (IC50) in assay [1] of 1.86 µg/mL (≈ 3.82 µM). Also, in assay [2], the MIC was 25 µg/mL (≈ 51.4 µM) and the “minimum growth sub-inhibitory concentration (minimum concentration causing partial growth inhibition; value in parentheses)” value is 12.5 µg/mL.

In the case of `CCCCCCCCCCCCCC=CC(O)C(N)COC(=O)C(O)CO` (centres unmarked) [Compound (5)], in assay [1], the IC50 was found to be 5 µg/mL (≈ 12.9 µM). Further, in assay [2], the MIC was determined as 50 µg/mL (≈ 129 µM) and the “minimum growth sub-inhibitory concentration (minimum concentration causing partial growth inhibition; value in parentheses)” value was 25 µg/mL.

In turn, `CCCCCCCCCCCCCC=CC(O)C(N)COC(=O)C(N)C(C)C` (centres unmarked) [Compound (6)] yielded a 50% inhibitory concentration (IC50) in assay [1] of 1.55 µg/mL (≈ 3.89 µM). Also, in assay [2], the MIC was 50 µg/mL (≈ 125 µM) and the “minimum growth sub-inhibitory concentration (minimum concentration causing partial growth inhibition; value in parentheses)” value came out at 25 µg/mL.

In turn, `CCCCCCCCCCCCCCCC(O)C(N)C(=O)NC(C)C(=O)NC(C(=O)NC(CO)CO)C(C)C` (centres unmarked) [Compound (8)] showed a 50% inhibitory concentration (IC50) in assay [1] of 0.44 µg/mL (≈ 0.787 µM). In addition, the “minimum growth sub-inhibitory concentration (minimum concentration causing partial growth inhibition; value in parentheses)” value in assay [2] was determined as 50 µg/mL.
